Results taken from patent US11999715B2, “ASK1 inhibiting agents” (BIOGEN MA INC., priority 2018, dated 2024).

Assays:
ASK1/MAP3K5 = biological target: T1, ASK1/MAP3K5 (Homo sapiens, UniProt Q99683); assay: ASK1/MAP3K5 kinase assay by Reaction Biology Corp. (headed ASK1 TR-FRET Assay); format: biochemical; conditions: 20 μM myelin basic protein, 10 μM ATP, class symbols
T1 sequence (Q99683 1-1374): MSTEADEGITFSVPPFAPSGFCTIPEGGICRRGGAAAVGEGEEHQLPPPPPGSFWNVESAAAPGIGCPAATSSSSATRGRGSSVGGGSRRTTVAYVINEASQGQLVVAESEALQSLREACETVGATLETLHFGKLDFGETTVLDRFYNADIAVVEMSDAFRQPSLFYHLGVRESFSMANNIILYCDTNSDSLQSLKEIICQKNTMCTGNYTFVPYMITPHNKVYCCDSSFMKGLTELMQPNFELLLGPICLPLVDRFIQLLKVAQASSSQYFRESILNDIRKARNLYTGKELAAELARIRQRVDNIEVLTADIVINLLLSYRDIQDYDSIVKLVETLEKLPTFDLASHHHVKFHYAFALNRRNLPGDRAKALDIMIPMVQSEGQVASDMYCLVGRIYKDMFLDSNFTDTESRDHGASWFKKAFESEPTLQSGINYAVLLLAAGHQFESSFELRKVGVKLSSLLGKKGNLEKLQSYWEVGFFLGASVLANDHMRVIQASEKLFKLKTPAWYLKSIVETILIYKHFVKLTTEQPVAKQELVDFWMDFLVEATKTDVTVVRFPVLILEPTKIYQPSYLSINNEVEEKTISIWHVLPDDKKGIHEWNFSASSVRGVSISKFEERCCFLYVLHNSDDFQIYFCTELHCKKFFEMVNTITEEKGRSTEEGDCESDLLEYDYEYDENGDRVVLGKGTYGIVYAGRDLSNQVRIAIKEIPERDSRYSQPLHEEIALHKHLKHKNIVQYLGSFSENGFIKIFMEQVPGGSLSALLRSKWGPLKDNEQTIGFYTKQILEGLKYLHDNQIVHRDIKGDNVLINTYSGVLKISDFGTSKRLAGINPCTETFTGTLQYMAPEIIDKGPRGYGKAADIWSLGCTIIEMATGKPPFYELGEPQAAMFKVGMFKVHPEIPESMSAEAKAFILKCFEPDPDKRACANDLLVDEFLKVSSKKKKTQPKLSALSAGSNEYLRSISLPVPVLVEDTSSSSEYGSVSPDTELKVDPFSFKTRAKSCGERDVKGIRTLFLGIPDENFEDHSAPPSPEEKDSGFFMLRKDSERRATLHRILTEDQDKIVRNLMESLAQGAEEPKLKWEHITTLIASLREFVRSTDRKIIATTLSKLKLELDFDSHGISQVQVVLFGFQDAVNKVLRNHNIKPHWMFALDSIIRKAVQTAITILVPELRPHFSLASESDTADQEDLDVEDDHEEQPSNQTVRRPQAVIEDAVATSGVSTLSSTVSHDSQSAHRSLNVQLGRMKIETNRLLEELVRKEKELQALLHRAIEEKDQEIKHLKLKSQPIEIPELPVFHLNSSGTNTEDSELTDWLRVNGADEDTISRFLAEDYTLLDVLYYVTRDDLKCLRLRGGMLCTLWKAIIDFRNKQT
How it was run: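 Radiometric filter-binding assay with ASK1/MAP3K5, 20 μM MBP substrate and 10 μM ATP plus ^33P-ATP in HEPES pH 7.5 buffer with 1% DMSO. Compounds were preincubated with kinase 20 min, and the reaction then ran 2 hours at room temperature.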

[1] = biological target: T2, ASK1 T838 auto phosphorylation (Homo sapiens, UniProt Q99683); assay: ASK1 (AUTO PHOS T838) assay, MSD format, in HEK-293T cells transfected with ASK1-V5; format: cell-based; conditions: ASK1 T838 auto phosphorylation in HEK-293T cells, 1 hr compound incubation; class symbols
T2 sequence (Q99683 1-1374): T1 sequence (Q99683 1-1374)
How it was run: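 HEK-293T cells transiently transfected with full-length ASK1-V5 plasmid were replated, then treated 1 h at 37 °C with a 10-point, 3-fold series from 20 μM. Lysates were probed by MSD with anti-pASK1 T838 and a sulfo-tag secondary, read by chemiluminescence. IC50 came from a 4-parameter fit of normalized % activity.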

SMILES | IC50 (ASK1/MAP3K5) [nM] | IC50 [1] [nM]
COc1nn(-c2cncc(O)c2)cc1C(=O)Nc1cccc(-c2nncn2C(C)C)n1 [Example 70, 1-(5-Hydroxypyridin-3-yl)-N-(6-(4-isopropyl-4H-1,2,4-triazol-3-yl)pyridin-2-yl)-3-methoxy-1H-pyrazole-4-carboxamide] | ≤ 100 | 1000 to 10000
COc1cncc(-n2cc(C(=O)Nc3cccc(-c4nncn4C(C)C)n3)c(OC)n2)c1 [Example 71, N-(6-(4-Isopropyl-4H-1,2,4-triazol-3-yl)pyridin-2-yl)-3-methoxy-1-(5-methoxypyridin-3-yl)-1H-pyrazole-4-carboxamide] | ≤ 100 | ≤ 1000
COc1nn(-c2cncc(OC(C)C)c2)cc1C(=O)Nc1cccc(-c2nncn2C(C)C)n1 [Example 72, 1-(5-Isopropoxypyridin-3-yl)-N-(6-(4-isopropyl-4H-1,2,4-triazol-3-yl)pyridin-2-yl)-3-methoxy-1H-pyrazole-4-carboxamide] | ≤ 100 | ≤ 1000
CC(C)n1cnnc1-c1cccc(NC(=O)c2cn(-c3cncc(C4CC4)c3)nc2C(F)F)n1 [Example 77, 1-(5-Cyclopropylpyridin-3-yl)-3-(difluoromethyl)-N-(6-(4-isopropyl-4H-1,2,4-triazol-3-yl)pyridin-2-yl)-1H-pyrazole-4-carboxamide] | ≤ 100 | ≤ 1000
CC(C)Oc1cncc(-n2cc(C(=O)Nc3cccc(-c4nncn4C(C)C)n3)c(C(F)F)n2)c1 [Example 81, 3-(Difluoromethyl)-1-(5-isopropoxypyridin-3-yl)-N-(6-(4-isopropyl-4H-1,2,4-triazol-3-yl)pyridin-2-yl)-1H-pyrazole-4-carboxamide] | ≤ 100 | ≤ 1000
COc1nn(-c2cccnn2)cc1C(=O)Nc1cccc(-c2nncn2C(C)C)n1 [Example 84, N-(6-(4-Isopropyl-4H-1,2,4-triazol-3-yl)pyridin-2-yl)-3-methoxy-1-(pyridazin-3-yl)-1H-pyrazole-4-carboxamide] | ≤ 100 | ≤ 1000
COc1nn(-c2cccnn2)cc1C(=O)Nc1cccc(-c2nncn2[C@@H](C)C(F)(F)F)n1 [Example 85, (S)-3-Methoxy-1-(pyridazin-3-yl)-N-(6-(4-(1,1,1-trifluoropropan-2-yl)-4H-1,2,4-triazol-3-yl)pyridin-2-yl)-1H-pyrazole-4-carboxamide] | ≤ 100 | ≤ 1000
COc1nn(-c2cccnn2)cc1C(=O)Nc1cccc(-c2nncn2[C@H](C)C(F)(F)F)n1 [Example 86, (R)-3-Methoxy-1-(pyridazin-3-yl)-N-(6-(4-(1,1,1-trifluoropropan-2-yl)-4H-1,2,4-triazol-3-yl)pyridin-2-yl)-1H-pyrazole-4-carboxamide] | 100 to 1000 | 1000 to 10000
COc1nn(-c2cnccn2)cc1C(=O)Nc1cccc(-c2nncn2[C@@H](C)C(F)(F)F)n1 [Example 87, (S)-3-Methoxy-1-(pyrazin-2-yl)-N-(6-(4-(1,1,1-trifluoropropan-2-yl)-4H-1,2,4-triazol-3-yl)pyridin-2-yl)-1H-pyrazole-4-carboxamide] | ≤ 100 | ≤ 1000
COc1nn(-c2cnccn2)cc1C(=O)Nc1cccc(-c2nncn2[C@H](C)C(F)(F)F)n1 [Example 88, (R)-3-Methoxy-1-(pyrazin-2-yl)-N-(6-(4-(1,1,1-trifluoropropan-2-yl)-4H-1,2,4-triazol-3-yl)pyridin-2-yl)-1H-pyrazole-4-carboxamide] | 100 to 1000 | 1000 to 10000
C[C@H](n1cnnc1-c1cccc(NC(=O)c2cn(-c3cnccn3)nc2C(F)F)n1)C(F)(F)F [Example 89, (S)-3-(Difluoromethyl)-1-(pyrazin-2-yl)-N-(6-(4-(1,1,1-trifluoropropan-2-yl)-4H-1,2,4-triazol-3-yl)pyridin-2-yl)-1H-pyrazole-4-carboxamide] | ≤ 100 | ≤ 1000
COCCn1cc(C(=O)Nc2cccc(-c3cncn3C(C)C)n2)c(OC)n1 [Example 92, N-(6-(1-Isopropyl-1H-imidazol-5-yl)pyridin-2-yl)-3-methoxy-1-(2-methoxyethyl)-1H-pyrazole-4-carboxamide] | ≤ 100 | ≤ 1000

The next lines start with the values.

IC50 (ASK1/MAP3K5) [nM] | IC50 [1] [nM] | SMILES
≤ 100 | ≤ 1000 | CC(C)n1cnnc1-c1cccc(NC(=O)c2cn(-c3cncc(Br)c3)nc2C(F)F)n1 [Example 74, 1-(5-Bromopyridin-3-yl)-3-(difluoromethyl)-N-(6-(4-isopropyl-4H-1,2,4-triazol-3-yl)pyridin-2-yl)-1H-pyrazole-4-carboxamide]
≤ 100 | ≤ 1000 | Cc1cncc(-n2cc(C(=O)Nc3cccc(-c4nncn4C(C)C)n3)c(C(F)F)n2)c1 [Example 75, 3-(Difluoromethyl)-N-(6-(4-isopropyl-4H-1,2,4-triazol-3-yl)pyridin-2-yl)-1-(5-methylpyridin-3-yl)-1H-pyrazole-4-carboxamide]
≤ 100 | ≤ 1000 | CC(C)n1cnnc1-c1cccc(NC(=O)c2cn(-c3cncc(C#N)c3)nc2C(F)F)n1 [Example 76, 1-(5-Cyanopyridin-3-yl)-3-(difluoromethyl)-N-(6-(4-isopropyl-4H-1,2,4-triazol-3-yl)pyridin-2-yl)-1H-pyrazole-4-carboxamide]
≤ 100 | ≤ 1000 | COc1cncc(-n2cc(C(=O)Nc3cccc(-c4nncn4C(C)C)n3)c(C(F)F)n2)c1 [Example 78, 3-(Difluoromethyl)-N-(6-(4-isopropyl-4H-1,2,4-triazol-3-yl)pyridin-2-yl)-1-(5-methoxypyridin-3-yl)-1H-pyrazole-4-carboxamide]
≤ 100 | ≤ 1000 | CC(C)n1cnnc1-c1cccc(NC(=O)c2cn(-c3cncc(N(C)C)c3)nc2C(F)F)n1 [Example 79, 3-(Difluoromethyl)-1-(5-(dimethylamino)pyridin-3-yl)-N-(6-(4-isopropyl-4H-1,2,4-triazol-3-yl)pyridin-2-yl)-1H-pyrazole-4-carboxamide]
≤ 100 | ≤ 1000 | CC(C)n1cnnc1-c1cccc(NC(=O)c2cn(-c3cncc(O)c3)nc2C(F)F)n1 [Example 80, 3-(Difluoromethyl)-1-(5-hydroxypyridin-3-yl)-N-(6-(4-isopropyl-4H-1,2,4-triazol-3-yl)pyridin-2-yl)-1H-pyrazole-4-carboxamide]
≤ 100 | ≤ 1000 | CC(C)n1cnnc1-c1cccc(NC(=O)c2cn(-c3cccnc3)nc2C(F)F)n1 [Example 82, 3-(Difluoromethyl)-N-(6-(4-isopropyl-4H-1,2,4-triazol-3-yl)pyridin-2-yl)-1-(pyridin-3-yl)-1H-pyrazole-4-carboxamide]
≤ 100 | ≤ 1000 | Cc1cncc(-n2cc(C(=O)Nc3cccc(-c4cncn4C(C)C)n3)c(C(F)F)n2)c1 [Example 93, 3-(Difluoromethyl)-N-(6-(1-isopropyl-1H-imidazol-5-yl)pyridin-2-yl)-1-(5-methylpyridin-3-yl)-1H-pyrazole-4-carboxamide]
≤ 100 | ≤ 1000 | CC(C)n1cncc1-c1cccc(NC(=O)c2cn(-c3cccnc3)nc2C(F)F)n1 [Example 94, 3-(Difluoromethyl)-N-(6-(1-isopropyl-1H-imidazol-5-yl)pyridin-2-yl)-1-(pyridin-3-yl)-1H-pyrazole-4-carboxamide]
